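48-hour exposure; five concentrations; linearly interpolated endpoints. GI50 marks 50% less growth.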 The source made the active and inactive calls. Cut-off read from the data, not from the text of the source: active = GI50 up to about 1.1 µM and inactive = higher.
How the values were obtained:
Test in all cases: NCI tumour cell line growth inhibition, 48 h
[1] = system: SW-620
[2] = system: HOP-62
[3] = system: SR
[4] = system: CCRF-CEM
[5] = system: SF-295
[6] = system: NCI-H226
[7] = system: OVCAR-8
[8] = system: TK-10
[9] = system: NCI-H460
[10] = system: M14
[11] = system: NCI-H23
[12] = system: SF-268
[13] = system: SF-539
[14] = system: A498
[15] = system: HCC 2998
[16] = system: SK-MEL-28
[17] = system: DU-145
[18] = system: CAKI-1
[19] = system: BT-549

| SMILES | GI50 [1] | GI50 [2] | GI50 [3] | GI50 [4] | GI50 [5] | GI50 [6] | GI50 [7] | GI50 [8] | GI50 [9] | GI50 [10] | GI50 [11] | GI50 [12] | GI50 [13] | GI50 [14] | GI50 [15] | GI50 [16] | GI50 [17] | GI50 [18] | GI50 [19] |
| --- | --- | --- | --- | --- | --- | --- | --- | --- | --- | --- | --- | --- | --- | --- | --- | --- | --- | --- | --- |
| c1csc(-c2cc(-c3ccsc3)c(-c3cccs3)s2)c1 | 74.3 µM (inactive) | > 100 µM (inactive) | 36.9 µM (inactive) | 28.8 µM (inactive) | > 100 µM (inactive) | > 100 µM (inactive) | > 100 µM (inactive) | > 100 µM (inactive) | 43.5 µM (inactive) | 56.1 µM (inactive) | 58.7 µM (inactive) | > 100 µM (inactive) | > 100 µM (inactive) | > 100 µM (inactive) | 55.8 µM (inactive) | 41.3 µM (inactive) | > 100 µM (inactive) | > 100 µM (inactive) | 46.2 µM (inactive) |
| C/C=C\C1OC1(C)c1cc(=O)c2c(C)cc3c(c2o1)C(=O)c1c(O)c(C2CC(C)(N(C)C)C(OC(C)=O)C(C)O2)cc(C2CC(N(C)C)C(O)C(C)O2)c1C3=O (stereo unspecified) | < 0.00375 µM (active) | < 0.00375 µM (active) | < 0.00375 µM (active) | < 0.00375 µM (active) | < 0.00375 µM (active) | 0.00461 µM (active) | < 0.00375 µM (active) | 0.0113 µM (active) | < 0.00375 µM (active) | < 0.00375 µM (active) | < 0.00375 µM (active) | 0.00516 µM (active) | 0.00433 µM (active) | 0.00875 µM (active) | < 0.00375 µM (active) | 0.0152 µM (active) | 0.00405 µM (active) | < 0.00375 µM (active) | 0.00596 µM (active) |
| Cc1csc(NC23CC4CC(CC(C4)C2)C3)[n+]1C(P(=O)([O-])O)P(=O)(O)O (stereo unspecified) | > 100 µM (inactive) | > 100 µM (inactive) | > 100 µM (inactive) | > 100 µM (inactive) | > 100 µM (inactive) | > 100 µM (inactive) | > 100 µM (inactive) | > 100 µM (inactive) | > 100 µM (inactive) | > 100 µM (inactive) | > 100 µM (inactive) | > 100 µM (inactive) | > 100 µM (inactive) | > 100 µM (inactive) | > 100 µM (inactive) | > 100 µM (inactive) | > 100 µM (inactive) | > 100 µM (inactive) | > 100 µM (inactive) |
| O=C1C=CC(=O)C(CNc2ccc(C(=O)OC34CC5CC(CC(C5)C3)C4)cc2)=C1 | 10.5 µM (inactive) | 11.4 µM (inactive) | 3.81 µM (inactive) | 1.34 µM (inactive) | 16.6 µM (inactive) | 2 µM (inactive) | 5.11 µM (inactive) | 11.5 µM (inactive) | 15.2 µM (inactive) | 12.6 µM (inactive) | 6.67 µM (inactive) | 11.9 µM (inactive) | 2.49 µM (inactive) | 11.7 µM (inactive) | 15 µM (inactive) | 4.69 µM (inactive) | 19.4 µM (inactive) | 0.753 µM (active) | 5.12 µM (inactive) |
| CC(C)/C(Cl)=N/OC(=O)Nc1ccc(F)c(Cl)c1 | 1.92 µM (inactive) | 17.6 µM (inactive) | 1.56 µM (inactive) | 1.31 µM (inactive) | 16.1 µM (inactive) | 16.6 µM (inactive) | 17.4 µM (inactive) | 17.9 µM (inactive) | 18.2 µM (inactive) | 3.23 µM (inactive) | 14.2 µM (inactive) | 19.4 µM (inactive) | 6.43 µM (inactive) | 18.2 µM (inactive) | 14.6 µM (inactive) | 2.23 µM (inactive) | 16.2 µM (inactive) | 1.68 µM (inactive) | 5.06 µM (inactive) |
| O=C1CSC(c2cc3cc(Br)ccc3nc2Cl)N1c1ccc(F)c(Cl)c1 (stereo unspecified) | 28.5 µM (inactive) | > 50 µM (inactive) | 12.7 µM (inactive) | 13.1 µM (inactive) | > 50 µM (inactive) | 43.5 µM (inactive) | > 50 µM (inactive) | > 50 µM (inactive) | 40.8 µM (inactive) | > 50 µM (inactive) | > 50 µM (inactive) | 29.5 µM (inactive) | 17.3 µM (inactive) | > 50 µM (inactive) | > 50 µM (inactive) | > 50 µM (inactive) | > 50 µM (inactive) | > 50 µM (inactive) | > 50 µM (inactive) |
| CC(C)c1c(O)c(O)c2c(c1O)C(=O)C(O)=C1C(C)(C)CCC[C@@]12C | 3.29 µM (inactive) | 8.61 µM (inactive) | 4.05 µM (inactive) | 3.48 µM (inactive) | 2.96 µM (inactive) | 3.01 µM (inactive) | 2.71 µM (inactive) | 3.86 µM (inactive) | 3.19 µM (inactive) | 5.47 µM (inactive) | 2.92 µM (inactive) | 4.76 µM (inactive) | 3.59 µM (inactive) | 3.84 µM (inactive) | 3.37 µM (inactive) | 5.85 µM (inactive) | 4.13 µM (inactive) | 2.61 µM (inactive) | 3.29 µM (inactive) |
| CCCCSc1nsc(N(C(=O)c2ccccc2)C(=O)c2ccccc2)n1 | 41.4 µM (inactive) | 34 µM (inactive) | 21.6 µM (inactive) | 35.8 µM (inactive) | 32.7 µM (inactive) | 29.7 µM (inactive) | 34.8 µM (inactive) | 36.4 µM (inactive) | 27.5 µM (inactive) | 29 µM (inactive) | 30.1 µM (inactive) | 35.8 µM (inactive) | 25.1 µM (inactive) | 31.5 µM (inactive) | 25.5 µM (inactive) | 40.2 µM (inactive) | 33.8 µM (inactive) | 36.5 µM (inactive) | 29.1 µM (inactive) |
| COC(=O)c1c(C)cccc1/C=C1\Cc2cc(C)cc(C)c2C1=O | > 100 µM (inactive) | 12 µM (inactive) | > 100 µM (inactive) | > 100 µM (inactive) | 21.7 µM (inactive) | 56.5 µM (inactive) | 63.8 µM (inactive) | 27.2 µM (inactive) | 98.4 µM (inactive) | 55 µM (inactive) | 51.1 µM (inactive) | 30.8 µM (inactive) | 35.1 µM (inactive) | 51.2 µM (inactive) | 82.2 µM (inactive) | > 100 µM (inactive) | > 100 µM (inactive) | > 100 µM (inactive) | > 100 µM (inactive) |
| CCOc1nc(-c2ccccc2)cc(-c2ccc(N3CCOCC3)cc2)c1C#N | > 100 µM (inactive) | > 100 µM (inactive) | > 100 µM (inactive) | > 100 µM (inactive) | 7.35 µM (inactive) | > 100 µM (inactive) | > 100 µM (inactive) | > 100 µM (inactive) | > 100 µM (inactive) | > 100 µM (inactive) | > 100 µM (inactive) | > 100 µM (inactive) | > 100 µM (inactive) | > 100 µM (inactive) | > 100 µM (inactive) | > 100 µM (inactive) | > 100 µM (inactive) | > 100 µM (inactive) | > 100 µM (inactive) |
| CN(C)CCNC(=O)c1cc([N+](=O)[O-])cn1C | > 100 µM (inactive) | > 100 µM (inactive) | > 100 µM (inactive) | > 100 µM (inactive) | > 100 µM (inactive) | > 100 µM (inactive) | > 100 µM (inactive) | > 100 µM (inactive) | > 100 µM (inactive) | > 100 µM (inactive) | > 100 µM (inactive) | > 100 µM (inactive) | > 100 µM (inactive) | > 100 µM (inactive) | > 100 µM (inactive) | > 100 µM (inactive) | > 100 µM (inactive) | > 100 µM (inactive) | > 100 µM (inactive) |
| O=C(O)COCC(=O)N(CCOCCN(Cc1ccccc1)C(=O)COCC(=O)O)Cc1ccccc1 | > 100 µM (inactive) | > 100 µM (inactive) | > 100 µM (inactive) | > 100 µM (inactive) | > 100 µM (inactive) | > 100 µM (inactive) | > 100 µM (inactive) | > 100 µM (inactive) | > 100 µM (inactive) | > 100 µM (inactive) | > 100 µM (inactive) | > 100 µM (inactive) | > 100 µM (inactive) | > 100 µM (inactive) | > 100 µM (inactive) | > 100 µM (inactive) | > 100 µM (inactive) | > 100 µM (inactive) | > 100 µM (inactive) |
| COc1ccc(NC(C(N)=O)c2cc3cc(Br)ccc3nc2Cl)cc1 (stereo unspecified) | 38.7 µM (inactive) | 59.8 µM (inactive) | 15.6 µM (inactive) | 26.2 µM (inactive) | 38.4 µM (inactive) | > 100 µM (inactive) | 57.1 µM (inactive) | 3.64 µM (inactive) | 89.5 µM (inactive) | 42 µM (inactive) | > 100 µM (inactive) | 76.4 µM (inactive) | 19.1 µM (inactive) | > 100 µM (inactive) | 73.8 µM (inactive) | > 100 µM (inactive) | > 100 µM (inactive) | > 100 µM (inactive) | 31.4 µM (inactive) |
| CCCCCC(/C=N/N)C(O)(C(F)(F)F)C(F)(F)F (stereo unspecified) | 2.53 µM (inactive) | 4.78 µM (inactive) | > 10 µM (inactive) | > 10 µM (inactive) | 3.13 µM (inactive) | 2.54 µM (inactive) | 3.48 µM (inactive) | 7.89 µM (inactive) | 3.34 µM (inactive) | 4.47 µM (inactive) | 3.58 µM (inactive) | 1.87 µM (inactive) | 3.93 µM (inactive) | 2.44 µM (inactive) | 6.78 µM (inactive) | 2.64 µM (inactive) | 1.9 µM (inactive) | 2.47 µM (inactive) | 4.04 µM (inactive) |

— ChEMBL document CHEMBL1201862, “PubChem BioAssay data set” (2004)
